The values that follow come from ChEMBL document CHEMBL5674873, “Expression and inhibition of BRD4, EZH2 and TOP2A in neurofibromas and malignant peripheral nerve sheath tumors” (PLoS One, 2017).

What all share (type): cell-based
Test [1] addresses DNA topoisomerase 2-alpha (Homo sapiens, UniProt P11388). The test is described as follows: Inhibition of TOP2A in human HS53T cells assessed as reduction in cell viability at 1 to 500 ng/ml incubated for 72 hrs by SRB assay. A general note: The SRB assay estimates cell density from bound dye.
Test [2] concerns the target T1, Bromodomain-containing protein 4 (Homo sapiens, UniProt O60885). In words: Inhibition of BRD4 in human HS53T cells assessed as reduction in cell viability at 4.9 to 2500 nM incubated for 72 hrs by SRB assay.
The target of test [3] is T1, Bromodomain-containing protein 4. In words: Inhibition of BRD4 in human ST88-14 cells assessed as reduction in cell viability at 4.9 to 2500 nM incubated for 72 hrs by SRB assay.
The target is the same in test [4]. Conditions: sts-26t; call rule not given here.

DNA topoisomerase 2-alpha, sequence (P11388 whole entry): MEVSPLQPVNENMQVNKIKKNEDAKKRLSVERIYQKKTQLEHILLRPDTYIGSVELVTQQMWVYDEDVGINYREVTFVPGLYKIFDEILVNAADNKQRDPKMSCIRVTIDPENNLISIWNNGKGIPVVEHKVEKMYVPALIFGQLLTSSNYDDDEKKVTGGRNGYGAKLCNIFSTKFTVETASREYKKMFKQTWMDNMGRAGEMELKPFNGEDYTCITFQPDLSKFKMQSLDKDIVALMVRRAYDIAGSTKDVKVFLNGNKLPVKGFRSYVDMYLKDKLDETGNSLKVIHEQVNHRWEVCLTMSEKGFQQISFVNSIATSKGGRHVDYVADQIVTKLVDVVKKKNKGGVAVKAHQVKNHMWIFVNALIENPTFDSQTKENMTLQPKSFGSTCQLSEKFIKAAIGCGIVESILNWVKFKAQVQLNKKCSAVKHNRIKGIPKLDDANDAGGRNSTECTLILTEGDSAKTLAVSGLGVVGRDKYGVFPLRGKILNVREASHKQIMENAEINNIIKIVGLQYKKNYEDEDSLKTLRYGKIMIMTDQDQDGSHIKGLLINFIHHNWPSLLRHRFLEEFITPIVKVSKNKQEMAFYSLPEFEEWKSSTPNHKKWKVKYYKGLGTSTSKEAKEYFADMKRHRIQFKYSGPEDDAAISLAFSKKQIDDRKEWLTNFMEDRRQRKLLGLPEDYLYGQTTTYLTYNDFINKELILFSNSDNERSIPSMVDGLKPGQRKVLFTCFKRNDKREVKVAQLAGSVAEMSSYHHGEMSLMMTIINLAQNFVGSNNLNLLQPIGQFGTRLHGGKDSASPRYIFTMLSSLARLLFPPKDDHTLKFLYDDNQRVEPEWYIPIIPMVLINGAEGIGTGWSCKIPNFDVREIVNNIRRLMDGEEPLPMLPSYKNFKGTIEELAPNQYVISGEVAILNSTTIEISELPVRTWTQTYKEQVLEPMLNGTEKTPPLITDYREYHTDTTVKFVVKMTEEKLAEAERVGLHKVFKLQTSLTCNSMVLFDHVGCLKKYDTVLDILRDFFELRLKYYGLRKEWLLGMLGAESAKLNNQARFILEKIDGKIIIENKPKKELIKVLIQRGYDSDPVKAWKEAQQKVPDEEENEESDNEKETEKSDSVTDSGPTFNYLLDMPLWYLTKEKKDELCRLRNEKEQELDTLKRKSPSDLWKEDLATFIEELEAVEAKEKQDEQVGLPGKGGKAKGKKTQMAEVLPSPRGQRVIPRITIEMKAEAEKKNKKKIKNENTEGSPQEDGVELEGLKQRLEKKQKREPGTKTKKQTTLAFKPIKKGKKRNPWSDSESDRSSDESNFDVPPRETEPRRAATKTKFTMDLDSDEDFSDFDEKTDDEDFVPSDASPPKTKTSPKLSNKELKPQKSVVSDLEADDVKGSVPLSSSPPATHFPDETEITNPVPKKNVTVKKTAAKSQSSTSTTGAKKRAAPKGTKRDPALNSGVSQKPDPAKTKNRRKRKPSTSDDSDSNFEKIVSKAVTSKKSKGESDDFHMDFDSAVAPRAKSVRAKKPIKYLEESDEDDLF

Consider `COc1cccc2c1C(=O)c1c(O)c3c(c(O)c1C2=O)C[C@@](O)(C(=O)CO)C[C@@H]3O[C@H]1C[C@H](N)[C@H](O)[C@H](C)O1` [DOXORUBICIN], for which the IC50 entry in test [1] was “Not Active”.
Take `Cc1sc2c(c1C)C(c1ccc(Cl)cc1)=N[C@@H](CC(=O)OC(C)(C)C)c1nnc(C)n1-2`: the IC50 result in test [2], in test [3] and in test [4] was “Not Active” each time.
